Among the test systems are DU-145 prostate; HCT-15 colon; HOP-62 NSCLC; HS 578T breast; M14 melanoma; MCF7 breast; NCI-H226 lung; NCI-H23 lung; NCI/ADR-RES ovarian; OVCAR-3 ovarian; RPMI-8226 leukemia; SF-539 CNS; SK-MEL-2 melanoma; SK-MEL-28 melanoma; SK-OV-3 ovarian; SR leukemia; UACC-257 melanoma; HOP-92 NSCLC.
What all share (assay): NCI anticancer screen, dose series, 48 h

Our source for the TGI values is PubChem BioAssay (NCI).

Structures are written as SMILES.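 Briefly, cells in 96-well plates were exposed to five compound concentrations for 48 h, and endpoints were estimated by linear interpolation. TGI denotes the concentration required for complete inhibition of growth.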 A value given as a limit tells only on which side of the number the result lay.

Regarding `COC1=C(Br)[C@H](O)[C@@]2(C=C1Br)CC(C(=O)NCCCCCN=C(N)N)=NO2`, the TGI in the experiment on DU-145 prostate, in the experiment with HCT-15 colon, in the experiment with HOP-62 NSCLC, with HS 578T breast, in the experiment on M14 melanoma and in the experiment with MCF7 breast was > 10 µM in each case. Also, the TGI with NCI-H226 lung, with NCI-H23 lung, in the experiment on NCI/ADR-RES ovarian, in the experiment on OVCAR-3 ovarian, in the experiment on RPMI-8226 leukemia and with SF-539 CNS was > 10 µM in each case. Further, the TGI with SK-MEL-2 melanoma, with SK-MEL-28 melanoma, in the experiment with SK-OV-3 ovarian, with SR leukemia and with UACC-257 melanoma was > 10 µM each time.

With `CCOC(=O)CC1c2ccc(O)cc2OC(=O)C1c1ccc([N+](=O)[O-])cc1` (centres undefined), the TGI with DU-145 prostate was > 100 µM; with HCT-15 colon, > 100 µM; in the experiment with HOP-62 NSCLC, 68.2 µM; in the experiment on HOP-92 NSCLC, 63.2 µM; with HS 578T breast it was > 100 µM; in the experiment with M14 melanoma it was 43.8 µM. In addition, the TGI in the experiment with MCF7 breast is 40.9 µM; with NCI-H226 lung, 58.4 µM; with NCI-H23 lung, 96.7 µM; in the experiment on NCI/ADR-RES ovarian, 72.6 µM; in the experiment on OVCAR-3 ovarian it was > 100 µM; with SF-539 CNS it was > 100 µM. In addition, the TGI with SK-MEL-2 melanoma is 40.1 µM; in the experiment with SK-MEL-28 melanoma it was > 100 µM; in the experiment with SK-OV-3 ovarian, 85.5 µM; in the experiment with SR leukemia, 77.5 µM; in the experiment with UACC-257 melanoma, 94.5 µM.

Consider `COc1ccc2c(c1)CCc1c-2[nH]c2ccc(OC)cc12`, for which the TGI in the experiment on DU-145 prostate, in the experiment on HCT-15 colon, with HOP-62 NSCLC, with HOP-92 NSCLC, in the experiment with HS 578T breast and with M14 melanoma was > 100 µM each time. Besides, the TGI in the experiment with MCF7 breast, in the experiment with NCI-H226 lung, with NCI-H23 lung, in the experiment on NCI/ADR-RES ovarian, with OVCAR-3 ovarian and with RPMI-8226 leukemia was > 100 µM in each case. Besides, the TGI in the experiment on SK-MEL-2 melanoma, with SK-MEL-28 melanoma, with SK-OV-3 ovarian, with SR leukemia and in the experiment on UACC-257 melanoma was > 100 µM in each case.

Regarding `O=C(O)c1ccc(NNc2cc(=O)[nH]c(=O)[nH]2)cc1`, the TGI in the experiment on DU-145 prostate, in the experiment on HCT-15 colon, in the experiment on HOP-62 NSCLC, with HS 578T breast, in the experiment on M14 melanoma and in the experiment with MCF7 breast was > 100 µM each time. Also, the TGI with NCI-H226 lung, in the experiment on NCI-H23 lung, in the experiment on NCI/ADR-RES ovarian, in the experiment on OVCAR-3 ovarian, in the experiment with RPMI-8226 leukemia and with SF-539 CNS was > 100 µM in each case. Besides, the TGI in the experiment on SK-MEL-2 melanoma, in the experiment with SK-MEL-28 melanoma, with SK-OV-3 ovarian, with SR leukemia and in the experiment on UACC-257 melanoma was > 100 µM each time.

For `CCOC(=O)c1nc2c(Cl)c3ncccc3cc2[nH]c1=O`, the TGI is > 100 µM with DU-145 prostate; 56.5 µM with HCT-15 colon; > 100 µM with HOP-62 NSCLC; > 100 µM in the experiment on HOP-92 NSCLC; > 100 µM in the experiment on HS 578T breast; > 100 µM in the experiment with M14 melanoma. In addition, the TGI in the experiment with MCF7 breast, in the experiment with NCI-H226 lung, with NCI-H23 lung, with NCI/ADR-RES ovarian, in the experiment with OVCAR-3 ovarian and in the experiment on SF-539 CNS was > 100 µM in each case. The TGI with SK-MEL-2 melanoma, with SK-MEL-28 melanoma, in the experiment on SK-OV-3 ovarian, in the experiment with SR leukemia and in the experiment with UACC-257 melanoma was > 100 µM each time.

`COc1ccc2c(c1C)C(=O)C(O)(CC=C(C)C)O2` (centres undefined): the TGI in the experiment on DU-145 prostate, in the experiment on HCT-15 colon, with HOP-62 NSCLC, in the experiment on HS 578T breast, in the experiment on M14 melanoma and in the experiment on MCF7 breast was > 100 µM in each case. Further, the TGI with NCI-H226 lung, in the experiment with NCI-H23 lung, in the experiment with NCI/ADR-RES ovarian, in the experiment on OVCAR-3 ovarian, in the experiment with RPMI-8226 leukemia and with SF-539 CNS was > 100 µM in each case. In addition, the TGI in the experiment on SK-MEL-2 melanoma, with SK-MEL-28 melanoma, in the experiment on SK-OV-3 ovarian, in the experiment on SR leukemia and with UACC-257 melanoma was > 100 µM each time.

In the case of `Cc1cn(C2CC(ON3C(=O)c4ccccc4C3=O)C(CO)O2)c(=O)[nH]c1=O` (centres undefined), the TGI with DU-145 prostate, with HCT-15 colon, in the experiment with HOP-92 NSCLC, with HS 578T breast, with M14 melanoma and in the experiment with MCF7 breast was > 10 µM throughout. In addition, the TGI in the experiment with NCI-H226 lung, with NCI-H23 lung, in the experiment with NCI/ADR-RES ovarian, with OVCAR-3 ovarian, in the experiment with SF-539 CNS and in the experiment on SK-MEL-2 melanoma was > 10 µM each time. The TGI with SK-OV-3 ovarian, with SR leukemia and in the experiment on UACC-257 melanoma was > 10 µM in each case.

On to `Clc1ccc(Cl)c(Nc2ccnc(SCc3ccccc3)n2)c1`, for which the TGI with DU-145 prostate, in the experiment with HCT-15 colon, in the experiment with HOP-62 NSCLC, in the experiment with HOP-92 NSCLC, with HS 578T breast and in the experiment with M14 melanoma was > 100 µM throughout. Further, the TGI with MCF7 breast, in the experiment with NCI-H23 lung, in the experiment with NCI/ADR-RES ovarian, in the experiment on OVCAR-3 ovarian, with RPMI-8226 leukemia and with SF-539 CNS was > 100 µM in each case. Moreover, the TGI in the experiment on SK-MEL-2 melanoma, in the experiment on SK-MEL-28 melanoma, with SK-OV-3 ovarian, in the experiment on SR leukemia and in the experiment on UACC-257 melanoma was > 100 µM each time.
